Patent US11959067B2, “Bifidobacterium lactis strain for preventing or treating colitis and method for preventing or alleviating colitis” (HARBIN SUNFLOWER PHARMACEUTICAL CO., LTD., priority 2021, dated 2024)
Where a name gives a salt, the structure may show the parent alone.

Assays:
[1] = test system: CTX-induced immunocompromised mouse model; type: in vivo; conditions: serum, CTX mice, LEV 10 mg·kg^−1
Method: (§1) SPF BALB/c male mice that each were 6 to 8 weeks old and weighed 18 g to 22 g were provided by Liaoning Changsheng Biotechnology Co., Ltd., with animal license No.: SCXK (Liao) 2020-0001. The BALB/c mice were randomly divided into 7 groups, with 8 mice in each group. Mice in the blank group and model group were each orally gavaged with 0.4 mL of NS, mice in the positive control group were each orally gavaged with levamisole hydrochloride (LEV) (10 mg·kg^−1), and mice in the B. lactis strain XLTG11 dose groups were orally gavaged with 0.4 mL of B. lactis strain XLTG11 suspensions at doses of 1×10^9 cfu, 1×10^8 cfu, 1×10^7 cfu, and 1×10^6 cfu per mouse, respectively. The mice were orally gavaged continuously for 28 d, during which the mice could eat and drink freely. On day 23 and day 24 after the oral gavage, mice in the model group, positive control group, and B. lactis strain XLTG11 dose groups were intraperitoneally injected with CTX (40 mg·kg^−1), and mice in the blank group were intraperitoneally injected with an equal volume of NS.
min after the last oral gavage to mice in each group, eyeballs were removed, the whole blood was collected and centrifuged at 3000 r·min^−1 for 10 min, and the resulting serum was collected, dispensed, and frozen in a −80° C. refrigerator for test. Serum IgA, IgG, IL-2, IL-6, IFN-γ, and TNF-α levels were determined with an ELISA kit, and specific operation steps were conducted according to the instructions.

[2] = test system: CTX-induced immunocompromised mouse model; test: Pathological changes of small intestinal mucosal tissue (HE staining) in CTX mice; type: in vivo, BALB/c male mice; conditions: LEV 10 mg·kg^−1, CTX mice, FIG. 9
Method: as §1

[3] = test system: CTX-induced immunocompromised mouse model; test: Villus height of small intestinal mucosa in CTX mice; type: in vivo, BALB/c male mice; conditions: LEV 10 mg·kg^−1, vs model group, P<0.05, FIG. 10
Method: as §1

[4] = test system: CTX-induced immunocompromised mouse model; type: in vivo
Method: as §1

c1ccc([C@H]2CN3CCSC3=N2)cc1 [Positive control, levamisole hydrochloride]
IFN-γ [1]: 466.78 ± 62.60 ng/L | IL-2 [1]: 666.32 ± 134.02 ng/L | IL-6 [1]: 77.12 ± 17.49 pg/mL | IgA [1]: 55.95 ± 3.66 ng/mL | IgG [1]: 467.59 ± 54.35 ng/mL | TNF-α [1]: 496.86 ± 49.31 ng/L | damage of the small intestinal mucosal tissue [2]: improved | small intestinal villus height [3]: increased | Toe thickness difference ([4]; LEV 10 mg·kg^−1, CTX mice, before vs 24 h after SRBC injection): 0.054 cm | Goblet cell number ([4]; LEV 10 mg·kg^−1, CTX mice, number of goblet cells/epithelial length (mm)): 25.22 | Spleen index ([4]; LEV 10 mg·kg^−1 oral gavage 28 d, CTX mice, spleen mass (mg)/body mass (g)): 2.97 | Thymus index ([4]; LEV 10 mg·kg^−1 oral gavage 28 d, CTX mice, thymus mass (mg)/body mass (g)): 1.42
